This is an account of results in US7026296B2, “Methods of treating dry eye disorders” (Alcon, Inc., priority 2002, dated 2006).

Experiment [1] concerns IL-6 production from CEPI-17 cells. Put plainly: Inhibition of hyperosmolarity-induced IL-6 production from human corneal epithelial cells in vitro. The experiment is classed as cell-based. To be noted: Corneal epithelial cell, 1 hour pre-treatment, hypertonic KGM-HC (additional 80 mM NaCl) 6 hours, ELISA, normalized by dsDNA. The method, then:
(§1) Inhibition of Hyperosmolarity-Induced Cytokine Production from Human Corneal Epithelial Cells in vitro.
(§2) The ocular tear film in dry eye is abnormally hyperosmolar, which is irritating to ocular surface cells. Treatment of human conjunctival epithelial cells with a hypertonic media elicits the production of pro-inflammatory cytokines. A selective JNK inhibitor, anthra[1,9-cd]pyrazol-6(2H)-one, was evaluated for inhibition of hyperosmolarity-induced cytokine secretion from the transformed human corneal epithelial cell line, CEPI-17.CEPI-17 cells were grown in complete isotonic Keratinocyte Growth Medium (iso KGM) and plated in 48-well plates in iso KGM without hydrocortisone (iso KGM-HC). When the cells reached confluence, they were pre-treated for 1 hour with the compound at the indicated concentration in iso KGM-HC. The cells were then stimulated by hypertonic KGM-HC for 6 hours (additional 80 mM NaCl added in iso KGM-HC) in the presence of the compound. Aliquots of the supernatants were assayed for IL-6,IL-8 by ELISA. Cytokine release was normalized by the amount of double stranded DNA (dsDNA) extracted from the cells. Percent inhibition of cytokine production was calculated by comparison with cytokine levels in vehicle-treated cells.

The subject of experiment [2] is IL-8 production from CEPI-17 cells. Kind of experiment: Inhibition of hyperosmolarity-induced IL-8 production from human corneal epithelial cells in vitro. The following applies: Corneal epithelial cell, 1 hour pre-treatment, hypertonic KGM-HC (additional 80 mM NaCl) 6 hours, ELISA, normalized by dsDNA. In kind it is cell-based. As for the experimental part:
as §1, §2

For `O=C1c2ccccc2-c2n[nH]c3cccc1c23` [SP-600125, anthra[1,9-cd]pyrazol-6(2H)-one], the figures for the IC50 in experiment [1] and in experiment [2] were 12.6 µM and 3.7 µM, respectively.
